Reference: PMC10792649 (Current Research in Microbial Sciences, 2023)

Biological target: OROV endonuclease (N-terminal endonuclease domain of OROV RNA-polymerase) (Oropouche virus, UniProt A0A0B5CUJ1)
Experiment: fluorescence assay, cleavage of labelled DNA FAM-TCTCTAGCAGTGGCGCC-TAM
Format: biochemical

COc1cc2[nH]c3c(OC)c(OC)ccc3c(=O)c2c(OC)c1OC [FAC21, 1,2,3,5,6-Pentamethoxy-9-(10H)-acridinone]
IC50: 1.4 ± 0.3 µM
